Values joined by “and” are separate entries in the source; they are usually repeats but may differ in a detail not shown here. Identical values can stand only once.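 Cultured in 96-well plates, cells were exposed to test compound for 48 hours across five concentrations. GI50: concentration for 50% inhibition of growth. TGI is the concentration that stops growth completely.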

Common to all, as to assay: NCI tumour cell line growth inhibition, 48 h
The subject of test [1] is M14 melanoma.
The test system of test [2] is K-562 leukemia.
The test system of test [3] is KM12 colon.
For test [4], the system named is SK-OV-3 ovarian.
For test [5], the system named is NCI-H226 lung.
For test [6], the system named is HCC-2998 colon.
The test system of test [7] is NCI-H460 lung.
In test [8] the test system is UACC-62 melanoma.
Test [9] has as its system DU-145 prostate.

In the case of `CC(=O)OC1CC2C(C)(C)C(=O)C=C[C@]2(C)C2CCC3(C)C(=CC(=O)C3c3ccoc3)[C@]12C` (stereo not given in full), the TGI in [1] was 61.7 µM; in test [2], over 100 µM; in test [3], 35.5 µM; in test [4], 35.6 µM; in [5] it was 35.6 µM; in [6], 26 µM. In addition, the TGI was determined as 34.1 µM in test [7] and 31.6 µM in test [8].

For the compound `CN(C)C=C1C(Cl)=C(C=O)CC(C=O)=C1Cl`, the TGI was 26.7 µM in test [1]; 13.8 µM in test [2]; 22.1 µM in test [3]; 79.7 µM in [4]; 28.7 µM in [6]; 39.7 µM in [7]. For the same compound, the TGI in [8] is 32.5 µM.

Consider `CC1=NN(C(=O)c2ccc([N+](=O)[O-])cc2)C(=O)C1N=Nc1ccccc1C(=O)O` (stereo not given), for which the TGI in test [2], in test [3], in [4], in test [5], in test [6] and in test [7] was over 100 µM in each case. The compound further registered a TGI in test [8] of over 100 µM.

Consider `CC(=O)[CH-]C(=O)c1ccccc1.CC(=O)[CH-]C(=O)c1ccccc1.CCOCC[O-].CCOCC[O-].[Ti+4]`, for which the GI50 is 16.7 µM in [1]; 23 µM in test [2]; 27.1 µM in [3]; 25.2 µM in test [4]; 5.55 µM in test [5]; 18.4 µM in test [6]. The GI50 is 18.8 µM in test [7] and 15.5 µM in test [8]. Besides, the TGI in test [1] was 37.1 µM; in test [2], 55.8 µM; in [3], 77.3 µM; in test [4], 74.9 µM; in test [5] it was 22.6 µM; in test [6], 43.5 µM. Also, the TGI was determined as 43.4 µM in test [7] and 37.8 µM in test [8].

Regarding `O=c1c2cccc3cccc(c4n1CCN=4)c32`, the TGI in [1], in [2], in [3], in test [4], in test [5] and in [7] was over 100 µM in each case. In test [8], this compound had a TGI of over 100 µM.

As to `CN1C(=O)C(=O)c2cc3c(c4c2c1cc1ccccc14)OCO3`, the TGI was over 100 µM in test [1]; over 100 µM in test [2]; 58.9 µM in test [3]; over 100 µM in [4]; 73.3 µM in test [5]; over 100 µM in test [6]. In addition, the results for the TGI in test [7] and in test [8] were over 100 µM and 38.5 µM, respectively.

Take `CO[C@H](C(=O)[C@@H](O)[C@@H](C)O)[C@@H]1Cc2cc3cc(OC4CC(OC5CC(O)C(O)C(C)O5)C(O)C(C)O4)c(C)c(O)c3c(O)c2C(=O)[C@H]1OC1CC(OC2CC(OC3CC(C)(O)C(O)C(C)O3)C(O)C(C)O2)C(O)C(C)O1` (stereo not given in full): the GI50 in [2] was 0.0253 µg/mL and 0.017 µg/mL; in test [3], 0.0197 µg/mL and 0.0207 µg/mL; in test [4], 0.0437 µg/mL; in test [5], 0.0179 µg/mL and 0.0115 µg/mL; in test [6] it was 0.0395 µg/mL and 0.0243 µg/mL; in test [7], 0.0183 µg/mL and 0.015 µg/mL. The GI50 in test [8] was 0.011 µg/mL.

For `O=[N+]([O-])C1Cc2ccccc2OC1c1ccccc1` (stereo not given), the TGI in test [1], in test [2], in [3], in test [4], in [5] and in test [6] was over 100 µM in each case. This compound also came in with a TGI in test [8] of over 100 µM.

On to `CC(C)(C)C1CCC2c3c([nH]c4ccccc34)C3C(=O)N(c4ccccc4)C(=O)C3C2C1` (stereo not given), for which the TGI in [1] is 19.7 µM; in test [2], 15.8 µM; in [3], over 100 µM; in test [4], 5.18 µM; in [5], 21.6 µM; in [6], 53.5 µM. Further, the TGI in test [7] worked out at 12.5 µM; in [8], 56.7 µM.

As for `CC/C(CC(=O)CCC(=O)Nc1ccccc1[N+](=O)[O-])=N/NC(=O)C[n+]1ccccc1`, the TGI in test [1], in test [2], in test [3], in [4], in test [5] and in [6] was over 100 µM throughout. Also, the TGI in test [7] and in [8] was over 100 µM in each case.

For the compound `C=C[C@@]1(O)CCCC2=C(C(=O)OCC)CC[C@]21C`, the TGI in [1], in test [2], in test [3], in [4], in test [5] and in [6] was over 100 µM in each case. Besides, in test [7], the TGI is over 100 µM.

On to `CC[N+]1(C)CCC(O)(c2ccc(OC)cc2)C(C(=O)c2ccc(OC)cc2)C1` (stereo not given), for which the TGI is 32.7 µM in [9]; 21.3 µM in test [1]; over 22.4 µM in test [2]; 31.2 µM in test [3]; 33.7 µM in [4]; 34.4 µM in [5]. The values for the TGI in [6], in [7] and in test [8] were 34.8 µM, 45 µM and 38.4 µM, respectively.

For the compound `O=S1Nc2c(Cl)cc(Cl)c3c(Cl)cc(Cl)c(c23)N1`, the TGI in [1] was over 100 µM; in test [2] it was over 100 µM; in test [3], over 100 µM; in test [4] it was over 100 µM; in test [5], 69.5 µM; in test [6] it was 99.8 µM. Besides, the TGI in test [8] came out at 66 µM.

Consider `C/C=C/CC(C)[C@@H](O)[C@H](NC)C(=O)O` (stereo not given in full), for which the TGI in [1], in [2], in [3], in test [4], in [6] and in test [7] was over 100 µM throughout. For the same compound, the TGI in [8] is over 100 µM.

In the case of `O=[N+]([O-])CCc1cccc([N+](=O)[O-])c1`, the TGI in test [1], in [2], in test [3], in [5], in [6] and in test [7] was over 100 µM throughout. The TGI in [8] was over 100 µM.
